Measured values: patent US20260274829A1, “NEW E3 UBIQUITIN LIGASE LIGAND, PROTEIN DEGRADATION AGENT AND USE THEREOF” (GLUETACS THERAPEUTICS (SHANGHAI) CO., LTD., priority 2023, published 2026)

target: T1, human Cereblon WT GST-tagged protein (Homo sapiens, UniProt Q96SW2); assay: CRBN binding, HTRF CEREBLON BINDING kit; details: CRBN binding, HTRF CEREBLON BINDING kit
T1 construct: purchased CISBIO 64BDCRBNPEH
Outline: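 Binding inhibition was calculated from the 665/620 nm emission ratios, with blank wells and solvent wells as references. Test compounds competed for GST-tagged human Cereblon WT against a Thalidomide-Re reagent paired with GST Eu antibody. Plates were sealed and held at room temperature for 3 hours before the HTRF read.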

T1 sequence (Q96SW2 whole entry): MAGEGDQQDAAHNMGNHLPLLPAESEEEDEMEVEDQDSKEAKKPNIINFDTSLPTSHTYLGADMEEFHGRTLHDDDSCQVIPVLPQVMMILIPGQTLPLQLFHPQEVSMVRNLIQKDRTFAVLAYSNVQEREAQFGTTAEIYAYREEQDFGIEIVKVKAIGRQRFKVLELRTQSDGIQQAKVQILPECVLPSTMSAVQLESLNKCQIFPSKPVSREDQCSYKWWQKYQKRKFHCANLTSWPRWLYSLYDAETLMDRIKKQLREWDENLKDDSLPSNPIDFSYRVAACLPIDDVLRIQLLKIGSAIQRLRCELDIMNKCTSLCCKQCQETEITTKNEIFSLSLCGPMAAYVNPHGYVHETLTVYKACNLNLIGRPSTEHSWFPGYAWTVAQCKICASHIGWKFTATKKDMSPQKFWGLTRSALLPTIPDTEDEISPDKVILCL

IC50 | Structure (SMILES)
> 10000 nM | C=CC(=O)N1CCC(c2ccc(C(N)=O)c(-c3ccc(Oc4ccccc4)cc3)n2)CC1 [Orelabrutinib, reference compound]
1000 to 1900 nM | COc1cc(N2CCN(Cc3ccc(N4CCC(=O)NC4=O)c(F)c3)CC2)ccc1Nc1ncc(Cl)c(Nc2ccccc2P(C)(C)=O)n1 [GT-07346, 1-(4-((4-(4-((5-chloro-4-((2-(dimethylphosphoryl)phenyl)amino)pyrimidin-2-yl)amino)-3-methoxyphenyl)piperazin-1-yl)methyl)-2-fluorophenyl)dihydropyrimidine-2,4(1H,3H)-dione]
500 to 1000 nM | O=C1CCN(c2cccc(CN3CCC(N4CCN(c5ccc(-c6cc(F)c7c(c6)C(=O)N(C(C(=O)Nc6nccs6)c6ncn8c6CCC8)C7)cc5)CC4)CC3)c2)C(=O)N1 (stereo not drawn) [GT-06328, 2-(6,7-dihydro-5H-pyrrolo[1,2-c]imidazol-1-yl)-2-(6-(4-(4-(1-(3-(2,4-dioxotetrahydropyrimidin-1(2H)-yl)benzyl)piperidin-4-yl)piperazin-1-yl)phenyl)-4-fluoro-1-oxoisoindolin-2-yl)-N-(thiazol-2-yl)acetamide]
1000 to 1900 nM | COc1cc2nn(C3CCN(Cc4cccc(N5CCC(=O)NC5=O)c4)CC3)cc2cc1NC(=O)c1cccc(C(F)(F)F)n1 [GT-04774, N-(2-(1-(3-(2,4-dioxotetrahydropyrimidin-1(2H)-yl)benzyl)piperidin-4-yl)-6-methoxy-2H-indazol-5-yl)-6-(trifluoromethyl)picolinamide]
500 to 1000 nM | COc1cc2nn(C3CCN(Cc4ccc(C5CCC(=O)NC5=O)cc4)CC3)cc2cc1NC(=O)c1cccc(C(F)(F)F)c1 (stereo not drawn) [GT-04747, N-(2-(1-(4-(2,6-dioxopiperidin-3-yl)benzyl)piperidin-4-yl)-6-methoxy-2H-indazol-5-yl)-3-(trifluoromethyl)benzamide]
< 500 nM | O=C1CCN(c2cccc(CN3CCN(c4ccc(-c5cc(F)c6c(c5)C(=O)N(C(C(=O)Nc5nccs5)c5ncn7c5CCC7)C6)cc4)CC3)c2)C(=O)N1 (stereo not drawn) [GT-06165, 2-(6,7-dihydro-5H-pyrrolo[1,2-c]imidazol-1-yl)-2-(6-(4-(4-(3-(2,4-dioxotetrahydropyrimidin-1(2H)-yl)benzyl)piperazin-1-yl)phenyl)-4-fluoro-1-oxoisoindolin-2-yl)-N-(thiazol-2-yl)acetamide]
500 to 1000 nM | COc1ccc2cn(C3CCN(Cc4ccc(C5CCC(=O)NC5=O)c(F)c4)CC3)nc2c1NC(=O)c1cccc(C(F)(F)F)c1 (stereo not drawn) [GT-04814, N-(2-(1-(4-(2,6-dioxopiperidin-3-yl)-3-fluorobenzyl)piperidin-4-yl)-6-methoxy-2H-indazol-7-yl)-3-(trifluoromethyl)benzamide]
500 to 1000 nM | CN(Cc1cc(N2CCC(=O)NC2=O)ncc1F)C1CCN(c2ccc(-c3cc(F)c4c(c3)C(=O)N(C(C(=O)Nc3nccs3)c3ncn5c3CCC5)C4)cc2)CC1 (stereo not drawn) [GT-07382, 2-(6,7-dihydro-5H-pyrrolo[1,2-c]imidazol-1-yl)-2-(6-(4-(4-(((2-(2,4-dioxotetrahydropyrimidin-1(2H)-yl)-5-fluoropyridin-4-yl)methyl)(methyl)amino)piperidin-1-yl)phenyl)-4-fluoro-1-oxoisoindolin-2-yl)-N-(thiazol-2-yl)acetamide]
< 500 nM | CCc1cc2c(cc1N1CCN(Cc3cccc(NC4CCC(=O)NC4=O)c3)CC1)C(C)(C)c1[nH]c3cc(C#N)ccc3c1C2=O (stereo not drawn) [GT-07328, 8-(4-(3-((2,6-dioxopiperidin-3-yl)amino)benzyl)piperazin-1-yl)-9-ethyl-6,6-dimethyl-11-oxo-6,11-dihydro-5H-benzo[b]carbazole-3-carbonitrile]
< 500 nM | CN(C)C(=O)c1cc2cnc(Nc3ccc(N4CCN(Cc5ccc(C6CCC(=O)NC6=O)cc5)CC4)cn3)nc2n1C1CCCC1 (stereo not drawn) [GT-06339, 7-cyclopentyl-2-((5-(4-(4-(2,6-dioxopiperidin-3-yl)benzyl)piperazin-1-yl)pyridin-2-yl)amino)-N,N-dimethyl-7H-pyrrolo[2,3-d]pyrimidine-6-carboxamide]
< 500 nM | CN1CCN([C@@H]2CCCN(c3cnc(C(N)=O)c(Nc4ccc(C5CCN(Cc6ccc(C7CCC(=O)NC7=O)c(F)c6)CC5)cc4)n3)C2)C1=O (stereo partly drawn) [GT-04799, 3-((4-(1-(4-(2,6-dioxopiperidin-3-yl)-3-fluorobenzyl)piperidin-4-yl)phenyl)amino)-5-((R)-3-(3-methyl-2-oxoimidazolidin-1-yl)piperidin-1-yl)pyrazine-2-carboxamide]
500 to 1000 nM | Nc1nnc(-c2ccccc2O)cc1N1CCN(Cc2ccc(N3CCC(=O)NC3=O)cc2)CC1 [GT-04961, 1-(4-((4-(3-amino-6-(2-hydroxyphenyl)pyridazin-4-yl)piperazin-1-yl)methyl)phenyl)dihydropyrimidine-2,4(1H,3H)-dione]
< 500 nM | O=C1CCC(Nc2cccc(CN3CCN(c4ccc(Nc5ncc6nc(Nc7ccccc7)n(C7CCCC7)c6n5)cc4)CC3)c2)C(=O)N1 (stereo not drawn) [GT-05841, 3-((3-((4-(4-((9-cyclopentyl-8-(phenylamino)-9H-purin-2-yl)amino)phenyl)piperazin-1-yl)methyl)phenyl)amino)piperidine-2,6-dione]
1000 to 1900 nM | COc1cc2nn(C3CCN(Cc4ccc(N5CCC(=O)NC5=O)cc4)CC3)cc2cc1NC(=O)c1cccc(C(F)(F)F)c1 [GT-04752, N-(2-(1-(4-(2,4-dioxotetrahydropyrimidin-1(2H)-yl)benzyl)piperidin-4-yl)-6-methoxy-2H-indazol-5-yl)-3-(trifluoromethyl)benzamide]
500 to 1000 nM | O=C1CCN(c2ccc(CN3CCC(n4cc(NC(=O)c5coc(-c6ccnc(NCC7CC7)c6)n5)c(C(F)F)n4)CC3)nc2)C(=O)N1 [GT-04958, 2-(2-((cyclopropylmethyl)amino)pyridin-4-yl)-N-(3-(difluoromethyl)-1-(1-((5-(2,4-dioxotetrahydropyrimidin-1(2H)-yl)pyridin-2-yl)methyl)piperidin-4-yl)-1H-pyrazol-4-yl)oxazole-4-carboxamide]
500 to 1000 nM | CN(C)C(=O)c1cc2cnc(Nc3ccc(N4CCN(Cc5cccc(N6CCC(=O)NC6=O)c5)CC4)cn3)nc2n1C1CCCC1 [GT-06341, 7-cyclopentyl-2-((5-(4-(3-(2,4-dioxotetrahydropyrimidin-1(2H)-yl)benzyl)piperazin-1-yl)pyridin-2-yl)amino)-N,N-dimethyl-7H-pyrrolo[2,3-d]pyrimidine-6-carboxamide]
500 to 1000 nM | Cc1cc(Nc2ncc(Cl)c(Nc3ccccc3S(=O)(=O)C(C)C)n2)c(OC(C)C)cc1C1CCN(Cc2ccc(C3CCC(=O)NC3=O)cc2)CC1 (stereo not drawn) [GT-07364, 3-(4-((4-(4-((5-chloro-4-((2-(isopropylsulfonyl)phenyl)amino)pyrimidin-2-yl)amino)-5-isopropoxy-2-methylphenyl)piperidin-1-yl)methyl)phenyl)piperidine-2,6-dione]
< 500 nM | O=C1CCC(c2cnc(F)c(CN3CCN(c4ccc(-c5cc(F)c6c(c5)C(=O)N(C(C(=O)Nc5nccs5)c5ncn7c5CCC7)C6)cc4)CC3)c2)C(=O)N1 (stereo not drawn) [GT-07490, 2-(6,7-dihydro-5H-pyrrolo[1,2-c]imidazol-1-yl)-2-(6-(4-(4-((5-(2,6-dioxopiperidin-3-yl)-2-fluoropyridin-3-yl)methyl)piperazin-1-yl)phenyl)-4-fluoro-1-oxoisoindolin-2-yl)-N-(thiazol-2-yl)acetamide]
500 to 1000 nM | Cc1nc2c(F)cc(-c3nc(Nc4ccc(N5CCC(N6CCN(Cc7ccc(N8CCC(=O)NC8=O)cn7)CC6)CC5)cn4)ncc3F)cc2n1C(C)C [GT-06741, 1-(6-((4-(1-(6-((5-fluoro-4-(4-fluoro-1-isopropyl-2-methyl-1H-benzo[d]imidazol-6-yl)pyrimidin-2-yl)amino)pyridin-3-yl)piperidin-4-yl)piperazin-1-yl)methyl)pyridin-3-yl)dihydropyrimidine-2,4(1H,3H)-dione]
500 to 1000 nM | CN(Cc1ccc(N2CCC(=O)NC2=O)cn1)C1CCN(c2ccc(-c3cc(F)c4c(c3)C(=O)N(C(C(=O)Nc3nccs3)c3ncn5c3CCC5)C4)cc2)CC1 (stereo not drawn) [GT-05282, 2-(6,7-dihydro-5H-pyrrolo[1,2-c]imidazol-1-yl)-2-(6-(4-(4-(((5-(2,4-dioxotetrahydropyrimidin-1(2H)-yl)pyridin-2-yl)methyl)(methyl)amino)piperidin-1-yl)phenyl)-4-fluoro-1-oxoisoindolin-2-yl)-N-(thiazol-2-yl)acetamide]
500 to 1000 nM | CC(C)n1nc(N2CCC(N3CCN(Cc4cccc(N5CCC(=O)NC5=O)c4)CC3)CC2)c2cnc(Nc3ccnc(-c4cnn(S(=O)(=O)C5CC5)c4)n3)cc21 [GT-06080, 1-(3-((4-(1-(6-((2-(1-(cyclopropylsulfonyl)-1H-pyrazol-4-yl)pyrimidin-4-yl)amino)-1-isopropyl-1H-pyrazolo[4,3-c]pyridin-3-yl)piperidin-4-yl)piperazin-1-yl)methyl)phenyl)dihydropyrimidine-2,4(1H,3H)-dione]
< 500 nM | O=C1CCN(c2cc(CN3CCN(c4ccc(-c5cc(F)c6c(c5)C(=O)N(C(C(=O)Nc5nccs5)c5ncn7c5CCC7)C6)cc4)CC3)ccn2)C(=O)N1 (stereo not drawn) [GT-07379, 2-(6,7-dihydro-5H-pyrrolo[1,2-c]imidazol-1-yl)-2-(6-(4-(4-((2-(2,4-dioxotetrahydropyrimidin-1(2H)-yl)pyridin-4-yl)methyl)piperazin-1-yl)phenyl)-4-fluoro-1-oxoisoindolin-2-yl)-N-(thiazol-2-yl)acetamide]

same assay, conditions: CRBN binding, HTRF; compound at 0.5 μM

Inhibition rate (%) at 0.5 μM | Structure (SMILES)
a1 (10% < a1 ≤ 20%) | COc1cc2nn(C3CCN(Cc4cc(N5CCC(=O)NC5=O)cnc4F)CC3)cc2cc1NC(=O)c1cccc(C(F)(F)F)c1 [GT-07781, N-(2-(1-((5-(2,4-dioxotetrahydropyrimidin-1(2H)-yl)-2-fluoropyridin-3-yl)methyl)piperidin-4-yl)-6-methoxy-2H-indazol-5-yl)-3-(trifluoromethyl)benzamide]

same assay, conditions: CRBN binding, HTRF; compound at 2 μM

Inhibition rate (%) at 2 μM | Structure (SMILES)
a5 (53% < a5 ≤ 60%) | COc1cc2nn(C3CCN(Cc4cc(N5CCC(=O)NC5=O)cnc4F)CC3)cc2cc1NC(=O)c1cccc(C(F)(F)F)c1 [GT-07781, N-(2-(1-((5-(2,4-dioxotetrahydropyrimidin-1(2H)-yl)-2-fluoropyridin-3-yl)methyl)piperidin-4-yl)-6-methoxy-2H-indazol-5-yl)-3-(trifluoromethyl)benzamide]
